The values that follow are results of earlier work, collected in US20060008512A1, “Composition and methods for improved animal performance” (priority 2004, published 2006).

Like-named read-outs stand apart in the source and are kept apart here.

For series [1], the system named is male rats. Particulars: treated from birth to day 25, cited from earlier work.
The test system of series [2] is male Peterson broiler breeder chicks. Particulars: 0.1% dietary, cited from earlier work.
The test system of the next series is suckling rat pups. Particulars: 0.1% solution in mother's drinking water, birth to 24 days, cited from earlier work.
The test system of the next series is broiler chickens. The settings on record: finishing-phase T3 administration alone; cited from earlier work.
Series [3] deals with growing cockerel and pullet chickens. The settings on record: 10 mg/kg dietary thyroid hormone; cited from earlier work.
The subject of series [4] is pigs. Particulars: 1,000 mg betaine/kg diet; cited from earlier work.
In a further series the test system is dogs. Particulars: approximately 5 mg biotin/10 kg body weight for 3 to 5 weeks; cited from earlier work.
In a further series the test system is laying hens. Particulars: 20 to 40 mg corticosterone/kg diet; cited from earlier work.
Series [5] concerns porcine thyroid follicles. Particulars: cited from earlier work.
Series [6] has as its system female Sprague-Dawley rats. The settings on record: fifteen days, cited from earlier work; for Concentration of reverse T3: control 71.7; for Concentration of T3: control 670.
For another series, the system named is humans. Particulars: daily doses of 100 to 200 mg iodide (from potassium iodide) per person; cited from earlier work.
Series [7] relates to isolated porcine thyroid follicles. The settings on record: 10 microM of iodide, comparison value; cited from earlier work.
A further series relates to White Leghorn hens. Particulars: single i.m. injection releasing 60 mcg/kg body weight per day for 30 days, cited from earlier work.
The test system of series [8] is pigs. The settings on record: 5 or 8 mg iodide/kg feed for 3 months; cited from earlier work.
For series [9] the following is noted: serum adjusted to 10 mM sodium salicylate; cited from earlier work.
Series [10] relates to male rats. Particulars: 200 mg/kg body weight i.v.; blood 30-240 minutes later; cited from earlier work.
In the next series the test system is neonatal male rats. Particulars: fed from birth to 24 days of age, cited from earlier work.
Series [11] concerns young male Nile tilapia fish. Particulars: 100 or 150 mg thiouracil/kg diet for 40 days; by 98 days; cited from earlier work.
The test system of another series is cockerels. Particulars: fed from 1 day of age; by the 14th week; cited from earlier work.
The next series has as its system broiler breeder hen. Particulars: 50 mg/kg feed; days 11 and 12; cited from earlier work.

Regarding `CCCc1cc(=O)[nH]c(=S)[nH]1` [6-propyl-2-thiouracil], the “Increase of testis weight compared to controls” value in the series on male rats [1] (at 90 days) is listed as 40%; in the series with male rats [1] (at 135 days), 60%; with male rats [1] (at 160 days), 80%. Also, the “Increase in testis weight” value in series [2] (8 to 14 or 10 to 16 weeks of age) is “about 35%”. The Testis weight is recorded as 27.7 g in [2] (8 to 14 weeks of age, control 20.0 g) and 27.7 g in [2] (10 to 16 weeks of age, control 20.0 g). Also, the “Increase in mean testis weight at 28 weeks” value in [2] (fed from 6 to 12 weeks of age) is listed as 96%. Moreover, in series [2] (fed from 6 to 12 weeks of age, control 20.0 g), the “Mean testis weight at 28 weeks” value is reported as 39.3 g. The “Decline of average Leydig cell volume” value in the series on suckling rat pups (at 180 days) is “about 20%”. Besides, the “Increase in number of Leydig cells per testis” value in the series on suckling rat pups (at 180 days) is 69%. For the same compound, in the series on suckling rat pups, the “Decline in number of hCG-binding sites (LH receptors)” value is recorded as 50%. For the same compound, the “Reduction of LH-stimulated testosterone production in Leydig cells” value with suckling rat pups is listed as 55%.
With `N[C@@H](Cc1cc(I)c(Oc2ccc(O)c(I)c2)c(I)c1)C(=O)O` [T3, 3,5,3′-triiodo-L-thyronine], in the series on broiler chickens, the “Reduction in body fat” value is reported as 17-25%. The “Reduction in body weight gain compared to controls” value in [3] was 55.24%.
Regarding `C[N+](C)(C)CC(=O)O` [betaine], in the series on pigs [4], the “Decrease in feed conversion ratio” value is 7.93% and the “Increase in average daily gain” value was 13.20%.
Take `O=C(O)CCCC[C@@H]1SC[C@@H]2NC(=O)N[C@@H]21` [biotin]: the Cases cured with dogs is listed as 60%.
For the compound `C[C@]12C[C@H](O)[C@H]3[C@@H](CCC4=CC(=O)CC[C@@]43C)[C@@H]1CC[C@@H]2C(=O)CO` [corticosterone], the “Laying hens with cessation of egg production” value in the series on laying hens is 98%.
As for `CCCCC/C=C\C/C=C\C/C=C\CC(I)C1CCCC(=O)O1` (stereo not drawn) [delta-iodolactone], the “Dose lower than iodide for comparable apoptosis” value in [5] (0.05 to 0.5 microM delta-iodolactone) is recorded as “about 40 fold”.
For the compound `Cc1cc2c(C(C)C)c(O)c(O)c(C=O)c2c(O)c1-c1c(C)cc2c(C(C)C)c(O)c(O)c(C=O)c2c1O` [gossypol acetic acid], the “Concentration of reverse T3” value in series [6] (5 mg/kg/day) was 0.0372 ng/mL; in series [6] (10 mg/kg/day) it was 0.0242 ng/mL. The “Concentration of T3” value is 0.43 ng/mL in series [6] (5 mg/kg/day) and 0.359 ng/mL in series [6] (10 mg/kg/day).
On to `I` [iodide], for which the Rate of apoptosis in [5] (2 and 20 microM iodide) is 4-6%. Further, in the series on humans, the “Protection from radioactive iodide” value is “over 97%”. Further, the “Inhibitory effect of iodide on thyroid follicle proliferation” value in series [7] is recorded as 84±2%.
In the case of `CCNC(=O)[C@@H]1CCCN1C(=O)[C@H](CCCNC(=N)N)NC(=O)[C@H](CC(C)C)NC(=O)[C@@H](CC(C)C)NC(=O)[C@H](Cc1ccc(O)cc1)NC(=O)[C@H](CO)NC(=O)[C@H](Cc1c[nH]c2ccccc12)NC(=O)[C@H](Cc1c[nH]cn1)NC(=O)[C@@H]1CCC(=O)N1` [leuprolide acetate], in the series on White Leghorn hens, the Body weight result is “no body weight loss”. Moreover, the Egg production with White Leghorn hens (second week) is given as 3.5%.
As for `[I-].[K+]` [potassium iodide], in the series on pigs [8], the “Increase of iodine content in adipose tissue” value is listed as 213%, the “Increase of iodine content in fresh muscle” value is 45%, the “Increase of iodine content in heart” value was 124% and the “Increase of iodine content in kidneys” value was 127%. For the same compound, the “Increase of iodine content in liver” value in the series with pigs [8] is reported as 207%.
Regarding `O=C([O-])c1ccccc1O.[Na+]` [sodium salicylate], the “Rise of free dialyzable fraction of T4 in vitro” value in series [9] is 125%. Further, in the series with male rats [10], the “Decrease in T3” value is 60%, the “Decrease in plasma T4 level” value is given as 20% and the “Increase in reverse T3” value is recorded as 20%.
Consider `O=c1cc[nH]c(=S)[nH]1` [thiouracil], for which the “Increase in testis size” value in the series on neonatal male rats (at 100 days) is given as 68%. For the same compound, the “Time for serum T4 and T3 to return to control levels after removal” value in the series with neonatal male rats was ≤ 15 days. Besides, the “Testis weight, gonadosomatic index, Sertoli, germ and Leydig cell numbers higher than control” value in [11] is “approximately 100%”. Further, the “Weights of testes relative to controls” value with cockerels is listed as “about 10 times”.
With Nicarbazin, the Hatchability in the series on broiler breeder hen is 31%.
